Consider 14 compounds from ChEMBL document CHEMBL4219121, “Synthesis, antitumor activity and DNA binding features of benzothiazolyl and benzimidazolyl substituted isoindolines” (Bioorg Med Chem, 2018).

The source made the active and inactive calls. The calls are words filed in the database; no cut-off is given here.

For one data set, the system named is MCF7. The data set can be described thus: Antiproliferative activity against human MCF7 cells after 72 hrs by MTT assay. Format: functional, cell-based. The settings on record: MCF7, 72 h.
The test system of the next data set is SW-620. The data set can be described thus: Antiproliferative activity against human SW620 cells after 72 hrs by MTT assay. It is filed as functional, cell-based. The settings on record: SW-620, 72 h.
The subject of the next data set is HepG2. The data set can be described thus: Antiproliferative activity against human HepG2 cells after 72 hrs by MTT assay. The following applies: HepG2, 72 h. It is filed as functional, cell-based.
The subject of the next data set is HeLa. As to the kind of experiment: Antiproliferative activity against human HeLa cells after 72 hrs by MTT assay. Format: functional, cell-based. A general note: Tetrazolium dyes change colour on reduction, which living cells bring about.
For the next data set, the system named is BJ. The data set can be described thus: Antiproliferative activity against human BJ cells after 72 hrs by MTT assay. It is filed as cell-based.
In data set [1] the test system is Calf thymus DNA. As to the kind of experiment: Binding affinity to calf thymus DNA assessed as change in melting temperature at drug/DNA ratio of 0.25 by spectrophotmetric method. It is filed as nucleic-acid assay. The following applies: Bos taurus.
Data set [2] concerns Calf thymus DNA. As to the kind of experiment: Binding affinity to calf thymus DNA assessed as change in melting temperature at drug/DNA ratio of 0.5 by spectrophotmetric method. The following applies: Bos taurus. It is filed as nucleic-acid assay.
Data set [3] concerns Calf thymus DNA. As to the kind of experiment: Binding affinity to calf thymus DNA assessed as change in melting temperature at drug/DNA ratio of 1 by spectrophotmetric method. It is filed as nucleic-acid assay. The settings on record: Bos taurus.
Data set [4] has as its system Calf thymus DNA. The data set can be described thus: Binding affinity to calf thymus DNA at 1 to 25 uM by circular dichroism spectral analysis. Format: nucleic-acid assay. The following applies: Bos taurus. For orientation: Circular dichroism is the unequal absorption of left and right circularly polarised light.
In data set [5] the target is T1, DNA topoisomerase 1 (Homo sapiens) (UniProt P11387).
T1 sequence (whole entry): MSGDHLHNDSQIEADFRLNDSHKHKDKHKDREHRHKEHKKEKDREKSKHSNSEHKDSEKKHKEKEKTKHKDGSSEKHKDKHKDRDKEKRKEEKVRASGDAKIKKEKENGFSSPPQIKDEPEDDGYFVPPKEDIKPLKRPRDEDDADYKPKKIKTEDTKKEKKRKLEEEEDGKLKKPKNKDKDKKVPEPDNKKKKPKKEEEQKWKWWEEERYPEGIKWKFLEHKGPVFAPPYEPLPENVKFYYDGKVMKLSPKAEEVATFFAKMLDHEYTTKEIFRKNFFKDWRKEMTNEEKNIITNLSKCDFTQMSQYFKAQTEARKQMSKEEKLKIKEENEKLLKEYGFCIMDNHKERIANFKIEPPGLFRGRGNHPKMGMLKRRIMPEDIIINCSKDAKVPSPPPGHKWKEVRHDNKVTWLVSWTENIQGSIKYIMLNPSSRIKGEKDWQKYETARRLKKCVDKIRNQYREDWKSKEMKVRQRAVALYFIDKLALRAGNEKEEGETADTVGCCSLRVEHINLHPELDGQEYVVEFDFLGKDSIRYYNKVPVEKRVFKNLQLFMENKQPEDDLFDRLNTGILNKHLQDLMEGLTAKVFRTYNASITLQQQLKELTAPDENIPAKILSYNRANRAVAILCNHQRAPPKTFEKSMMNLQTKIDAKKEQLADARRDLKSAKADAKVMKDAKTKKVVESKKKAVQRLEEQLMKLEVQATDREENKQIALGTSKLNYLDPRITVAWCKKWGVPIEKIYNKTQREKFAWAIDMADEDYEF
The data set can be described thus: Inhibition of human topoisomerase1-mediated DNA relaxation assessed as DNA intercalation at 5 to 50 uM using supercoiled pUC19 as substrate pretreated with substrate for 45 mins followed by enzyme addition measured by agarose gel electrophoresis.

In data set [6] the target is T1, DNA topoisomerase 1 (Homo sapiens). The data set can be described thus: Poison activity at human topoisomerase1 assessed as accumulation of nicked DNA at 5 to 50 uM using supercoiled pUC19 as substrate pretreated with substrate for 45 mins followed by enzyme addition measured by agarose gel electrophoresis.
The target is the same in data set [7]. As to the kind of experiment: Poison activity at human topoisomerase1 assessed as accumulation of nicked DNA at 10 uM using supercoiled pUC19 as substrate pretreated with substrate for 45 mins followed by enzyme addition measured by agarose gel electrophoresis relative to control.
For data set [8] the target is unchanged. As to the kind of experiment: Poison activity at human topoisomerase1 assessed as accumulation of nicked DNA at 20 uM using supercoiled pUC19 as substrate pretreated with substrate for 45 mins followed by enzyme addition measured by agarose gel electrophoresis relative to control.
Data set [9] shares this target. The data set can be described thus: Poison activity at human topoisomerase1 assessed as accumulation of nicked DNA at 50 uM using supercoiled pUC19 as substrate pretreated with substrate for 45 mins followed by enzyme addition measured by agarose gel electrophoresis relative to control.
The nature of data set [10]: Drug uptake in human Caki2 cells at 50 uM measured after 5 hrs by Phalloidin CruzFluorTM 488 conjugate/propidium iodide staining based fluorescence microscopic analysis. The settings on record: caki-2, 5 h. Format: ADME, cell-based.
A short description of data set [11]: Drug uptake in nucleus of human Caki2 cells at 50 uM measured after 5 hrs by Phalloidin CruzFluorTM 488 conjugate/propidium iodide staining based fluorescence microscopic analysis. It is filed as ADME, subcellular. The settings on record: caki-2, 5 h.
The nature of data set [12]: Drug uptake in cytoplasm of human Caki2 cells at 50 uM measured after 5 hrs by Phalloidin CruzFluorTM 488 conjugate/propidium iodide staining based fluorescence microscopic analysis. Format: ADME, subcellular. The following applies: caki-2, 5 h.
The next data set concerns CAKI-2. As to the kind of experiment: Cytotoxicity against human Caki2 cells after 72 hrs by MTT assay. It is filed as functional, cell-based. The settings on record: CAKI-2, 72 h.
Data set [13] relates to Calf thymus DNA. As to the kind of experiment: Binding affinity to calf thymus DNA at 50 uM by circular dichroism spectral analysis. It is filed as nucleic-acid assay. The following applies: Bos taurus.
Data set [14] concerns the target DNA topoisomerase 2-alpha (Homo sapiens) (UniProt P11388). As to the kind of experiment: Poison activity at human topoisomerase2 assessed as accumulation of linear DNA at 10 to 50 uM using supercoiled pUC19 as substrate pretreated with substrate for 45 mins followed by […] measured by ethidium bromide staining based agarose gel electrophoresis.

Chain of DNA topoisomerase 2-alpha (Homo sapiens) (P11388 whole entry): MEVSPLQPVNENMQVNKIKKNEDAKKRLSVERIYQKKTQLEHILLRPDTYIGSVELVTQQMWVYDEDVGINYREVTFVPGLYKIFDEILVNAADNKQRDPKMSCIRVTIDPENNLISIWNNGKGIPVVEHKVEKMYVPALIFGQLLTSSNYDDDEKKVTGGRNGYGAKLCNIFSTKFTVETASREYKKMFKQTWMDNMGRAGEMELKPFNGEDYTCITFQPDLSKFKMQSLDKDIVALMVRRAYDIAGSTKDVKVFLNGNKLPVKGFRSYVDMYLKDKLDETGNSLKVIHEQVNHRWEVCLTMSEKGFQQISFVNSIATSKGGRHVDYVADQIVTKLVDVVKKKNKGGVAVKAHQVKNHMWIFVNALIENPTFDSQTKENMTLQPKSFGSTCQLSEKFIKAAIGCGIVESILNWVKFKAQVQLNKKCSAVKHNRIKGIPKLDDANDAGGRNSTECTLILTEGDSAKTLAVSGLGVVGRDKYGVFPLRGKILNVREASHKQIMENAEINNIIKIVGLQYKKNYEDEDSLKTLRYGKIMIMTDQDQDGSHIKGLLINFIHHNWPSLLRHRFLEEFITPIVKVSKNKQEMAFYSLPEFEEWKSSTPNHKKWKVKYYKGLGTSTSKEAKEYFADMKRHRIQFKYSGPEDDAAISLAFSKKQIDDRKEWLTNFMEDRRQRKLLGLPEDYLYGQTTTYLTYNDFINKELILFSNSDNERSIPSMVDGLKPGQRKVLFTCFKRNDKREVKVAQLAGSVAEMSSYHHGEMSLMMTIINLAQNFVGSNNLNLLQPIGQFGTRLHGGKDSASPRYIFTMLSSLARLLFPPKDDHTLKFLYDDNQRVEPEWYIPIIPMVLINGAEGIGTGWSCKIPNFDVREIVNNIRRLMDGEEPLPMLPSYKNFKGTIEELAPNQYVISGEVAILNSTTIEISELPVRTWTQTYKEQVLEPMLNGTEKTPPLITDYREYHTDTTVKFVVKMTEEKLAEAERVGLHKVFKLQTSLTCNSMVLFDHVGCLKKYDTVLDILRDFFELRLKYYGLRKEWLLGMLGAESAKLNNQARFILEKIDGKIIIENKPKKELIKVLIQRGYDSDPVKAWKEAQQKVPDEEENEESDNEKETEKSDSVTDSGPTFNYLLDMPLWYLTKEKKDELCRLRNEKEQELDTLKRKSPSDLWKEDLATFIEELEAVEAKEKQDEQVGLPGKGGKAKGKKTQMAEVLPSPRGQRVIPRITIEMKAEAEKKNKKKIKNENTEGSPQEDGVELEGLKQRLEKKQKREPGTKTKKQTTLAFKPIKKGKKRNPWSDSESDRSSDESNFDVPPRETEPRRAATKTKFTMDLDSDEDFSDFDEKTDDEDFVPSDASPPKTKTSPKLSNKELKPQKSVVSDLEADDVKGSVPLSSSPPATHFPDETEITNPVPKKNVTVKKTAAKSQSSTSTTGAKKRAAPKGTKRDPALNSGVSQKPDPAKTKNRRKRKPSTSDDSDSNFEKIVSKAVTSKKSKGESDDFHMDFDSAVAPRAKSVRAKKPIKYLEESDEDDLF

What is called IC50 is the point on the concentration scale where inhibition reaches its midpoint. The term ΔTm denotes the change in melting temperature against a reference sample. On to `Cl.Cl.c1ccc2c(c1)CN(c1nc3ccc(C4=NCCN4)cc3s1)/C2=N/c1nc2ccc(C3=NCCN3)cc2s1`, for which the IC50 was 1.48 µM in the data set with MCF7; greater than 100 µM with SW-620; 35 µM with HepG2; 74.5 µM with HeLa; 31.8 µM with BJ; 12.6 µM in the data set on CAKI-2. Further, the results for the thermal shift (ΔTm) in the data set on Calf thymus DNA [1], with Calf thymus DNA [2] and with Calf thymus DNA [3] were 6.8 °C, 10.5 °C and 12.2 °C, respectively. Further, the outcome (in the data set on Calf thymus DNA [4]; in data set [6]) was Active. In addition, in [5], the “inhibition (qualitative)” value is “Active”. Further, the fold change (FC) in data set [7] is 1.5 to 3.7; in [8], 3.7 to 9; in data set [9], 3.5. Also, the Drug uptake result in data set [10], in [11] and in [12] was “Active” each time.

Regarding `N#Cc1ccc2nc(N3Cc4ccccc4C3=O)[nH]c2c1`, the IC50 in the data set on MCF7 is 5.06 µM; with SW-620, greater than 100 µM; in the data set on HepG2, 10 µM; in the data set with HeLa, 24.1 µM; with BJ, 15.8 µM.

For `CC(C)NC(=N)c1ccc2nc(/N=C3\c4ccccc4CN3c3nc4ccc(C(=N)NC(C)C)cc4[nH]3)[nH]c2c1.Cl.Cl`, the IC50 is 66.1 µM with MCF7; greater than 100 µM in the data set with SW-620; 84.8 µM in the data set with HepG2; 96.8 µM in the data set on HeLa; greater than 100 µM with BJ; greater than 100 µM with CAKI-2. Also, the shift in melting temperature (ΔTm) in the data set with Calf thymus DNA [1] stood at 7 °C; in the data set with Calf thymus DNA [2], 12.9 °C. Moreover, the result (with Calf thymus DNA [4]; in data set [6]) was Active. Besides, the “inhibition (qualitative)” value in data set [5] is “Active”. Also, the fold change (FC) in data set [9] came to 2.2. The Drug uptake result in data set [10], in [11] and in data set [12] was “Active” each time.

Take `c1ccc2c(c1)CN(c1nc3ccccc3s1)/C2=N/c1nc2ccccc2s1`: the IC50 in the data set on MCF7 worked out at 0.08 µM; with SW-620, 6.98 µM; in the data set with HepG2, 0.82 µM; in the data set with HeLa, 4.68 µM; in the data set on BJ, 4.87 µM; in the data set with CAKI-2 it was 11.1 µM. The ΔTm in the data set with Calf thymus DNA [2] was -1.3 °C; in the data set on Calf thymus DNA [3] it was -2.2 °C. Further, the result in the data set with Calf thymus DNA [13] was inactive. The Drug uptake entry in [10], in [11] and in [12] was “Active” throughout.

Turning to `N=C(N)c1ccc2nc(N3Cc4ccccc4C3=O)[nH]c2c1`, the concentration for half-maximal inhibition (IC50) is greater than 100 µM with MCF7; greater than 100 µM in the data set on SW-620; 91.1 µM with HepG2; 52.2 µM with HeLa; 46.9 µM in the data set on BJ.

Take `N#Cc1ccc2nc(N3Cc4ccccc4C3=O)sc2c1`: the half-inhibitory concentration (IC50) with MCF7 is 9.93 µM; with SW-620 it was greater than 100 µM; with HepG2, 61.5 µM; in the data set on HeLa it was 54.7 µM; in the data set on BJ, 44.5 µM.

Consider `CC(C)NC(=N)c1ccc2nc(N3Cc4ccccc4C3=O)[nH]c2c1`, for which the concentration for half-maximal inhibition (IC50) with MCF7 is 0.93 µM; in the data set with SW-620, 71 µM; with HepG2, greater than 100 µM; with HeLa, 84.3 µM; in the data set with BJ, 5.72 µM.

As to `N#Cc1ccc2nc(/N=C3\c4ccccc4CN3c3nc4ccc(C#N)cc4[nH]3)[nH]c2c1`, the half-inhibitory concentration (IC50) was 0.02 µM with MCF7; 70 µM in the data set with SW-620; 17.9 µM with HepG2; 75.7 µM in the data set on HeLa; greater than 100 µM with BJ; greater than 100 µM with CAKI-2. Moreover, the thermal shift (ΔTm) in the data set on Calf thymus DNA [2] was -0.4 °C; with Calf thymus DNA [3], -0.5 °C. In addition, in the data set with Calf thymus DNA [13], the outcome was inactive. For the same compound, the Drug uptake result in data set [10], in [11] and in data set [12] was “Active” throughout.

Regarding `c1ccc2c(c1)CN(c1nc3ccccc3[nH]1)/C2=N/c1nc2ccccc2[nH]1`, the concentration for half-maximal inhibition (IC50) in the data set with MCF7 is 7.47 µM; in the data set on SW-620, greater than 100 µM; in the data set with HepG2 it was 7.85 µM; in the data set on HeLa it was 9.32 µM; with BJ, 22.4 µM. For the same compound, the shift in melting temperature (ΔTm) is -0.6 °C with Calf thymus DNA [1], -0.7 °C in the data set on Calf thymus DNA [2] and -0.5 °C with Calf thymus DNA [3].

As to `O=C1c2ccccc2CN1c1nc2ccc(C3=NCCN3)cc2[nH]1`, the IC50 amounted to 2.9 µM in the data set on MCF7; 8.67 µM in the data set with SW-620; 16.6 µM in the data set with HepG2; 6.12 µM in the data set on HeLa; 4.71 µM in the data set with BJ.

Consider `CC(C)NC(=N)c1ccc2nc(/N=C3\c4ccccc4CN3c3nc4ccc(C(=N)NC(C)C)cc4s3)sc2c1.Cl.Cl`, for which the IC50 with MCF7 came out at 90.1 µM; in the data set with SW-620 it was 49.5 µM; in the data set with HepG2 it was 68.8 µM; in the data set with HeLa it was 52.9 µM; with BJ it was 4.72 µM; in the data set on CAKI-2, 40 µM. In addition, the ΔTm was found to be 12.7 °C in the data set on Calf thymus DNA [1] and 18 °C in the data set with Calf thymus DNA [2]. Further, the “inhibition (qualitative)” value in [5] is “Active”. In addition, the Drug uptake entry in data set [10], in data set [11] and in data set [12] was “Active” throughout.

As for `COc1cc([C@@H]2c3cc4c(cc3[C@@H](O[C@@H]3O[C@@H]5CO[C@@H](C)O[C@H]5[C@H](O)[C@H]3O)[C@H]3COC(=O)[C@H]23)OCO4)cc(OC)c1O`, in data set [14], the outcome was Active.

On to `N#Cc1ccc2nc(/N=C3\c4ccccc4CN3c3nc4ccc(C#N)cc4s3)sc2c1`, for which the thermal shift (ΔTm) in the data set on Calf thymus DNA [2] was -1.1 °C; in the data set on Calf thymus DNA [3] it was -0.7 °C. In the data set with Calf thymus DNA [13], the outcome was inactive. The Drug uptake result in [10], in data set [11] and in data set [12] was “Active” throughout. Further, the IC50 in the data set with CAKI-2 was found to be 21.7 µM.

Consider `CC[C@@]1(O)C(=O)OCc2c1cc1n(c2=O)Cc2cc3ccccc3nc2-1`, for which the outcome in data set [6] was Active. Further, the values for the fold change (FC) in data set [7], in [8] and in data set [9] were 2, 2.3 to 2.9 and 2.5 to 3.2, respectively.
